# Test results reported in US20130012473A1, “COMBINED USE OF PHOSPHOLIPID AND SULFATE GROUPS-CARRYING POLYSACCHARIDES FOR INHIBITING METASTATIC SPREAD” (KTB TUMORFORSCHUNGSGESELLSCHAFT MBH, priority 2010, published 2013).
# Columns and labels:
# Format in all cases: cell-based, mouse
# [1] = tested on: VLA-4 adhesion of B16.F10 cells to VCAM-1; test: Parallel plate flow chamber assay, cell adhesion to immobilized VCAM-1
# Protocol: Flow chamber assay: The interaction of B16.F10 cells with VCAM-1 Fc chimera under physiological flow conditions was analyzed on glass slides coated with VCAM-1 Fc chimera in a parallel plate flow chamber, as described in detail in our previous investigations (Fritzsche, J. et al., Thromb. Haemost. 100:1166-1175 (2008)).
# Example 2: Impact of LysoPC treatment of B16.F10 cells on adhesion receptor activity in vitro. In order to investigate the concentration and time dependent effects of LysoPC on the receptor mediated cell binding ability, VLA-4 adhesion of B16.F10 cells to a support-fixed VCAM-1 layer was investigated (FIG. 2A). […] The LysoPC effects on adhesion became amplified by repeated LysoPC feeding.
# [2] = tested on: P-selectin mediated interaction of B16.F10 cells with activated platelets; test: Binding of calcein-labeled TRAP-14 activated platelets to B16.F10 cells; settings: cells treated with 450 μM LysoPC for 48 h
# Protocol: Platelet isolation: Platelets from blood of healthy volunteers were separated, routinely tested for viability, and activated by TRAP-14 (Bachem GmbH, Weil am Rhein, Germany) as recently described (Fritzsche, J. et al., Thromb. Haemost. 100:1166-1175 (2008)). Isolated platelets were stored at 37° C. in a water bath.
# B) Binding of calcein-labeled TRAP-14 activated platelets to B16.F10 cells treated with 450 μM LysoPC for 48 h was analyzed by fluorescence microscopy. […] Data represent means±SD from three independent experiments. P, resting platelets; aP, activated platelets; LysoPC, LysoPC treated B16.F10 cells; Ab, Ig-matched control antibody.
# B16.F10 cells = test: Fatty acid composition of cell lysates by GC analysis
# Protocol: Determination of fatty acid composition in cells and culture medium: Lipid extraction was performed according to the modified method of Bligh and Dyer (Bligh, E. G. and Dyer, W. J., Can. J. Biochem. Physiol. 37:911-917 (1959). For derivatization, the dried lipid extracts were subjected to methanol and TMSH and heated up to 100° C. for 10 min (Techne Dri Block DB-3D Techne, Stone, UK). Gas chromatography analysis was performed by an HP 5890 Series II Plus equipped with autosampler GC/SFC injector and flame ionisation detector (FID) with helium as carrier gas at 1 ml/min. Oven temperature program started with 150° C. for 3 min, up to 220° C. with a rate of 5° C./min, 220° C. for 3.5 min, split injection (split flow 100 ml/min, split ratio 1:100), 5 μl of injection volume, injector temperature 260° C. and FID at 280° C. on an Agilent DB-23 column (30 m, 0.25 mm ID, 0.25 μm). Integration of peak areas was performed with the HP software HP GC ChemStation (Rev.A.06.03[509]) running the GC system. Identification of peaks was accomplished by comparison to a fatty acid standard mixture.
# Example 3: Cell membrane alterations induced by LysoPC treatment. In order to analyze membrane alterations caused by exogenous LysoPC the kinetics of changed fatty acid profiles of B16.F10 cells were evaluated by GC analysis. […] Between 48 h and 72 h, a plateau was apparently reached (C17:0: ˜55%). […]
smiles,measurement,setting,value
CCCCCCCCCCCCCCCCC(=O)OC[C@@H](O)COP(=O)([O-])OCC[N+](C)(C)C [LysoPC],cell binding to support-fixed VCAM-1,[1]; repeated addition of 300 μM LysoPC (13 days),no effect in reducing the VLA-4 binding
same,cell binding to support-fixed VCAM-1,[1]; single incubation with 300 μM LysoPC for 72 h,did not mediate significant binding decrease
same,cell binding to support-fixed VCAM-1,[1]; single incubation with 450 μM LysoPC for 72 h before VLA-4 activation,significantly impaired the cell binding
same,cell binding to support-fixed VCAM-1,[1]; treated six times with 450 μM LysoPC (13 days),complete binding inhibition
same,interaction of B16.F10 cells with activated platelets,[2],significantly (p<0.001) reduced P-selectin mediated interaction with activated platelets to the level of resting cells
same,reduction of fatty acid ratio after replacing LysoPC medium,B16.F10 cells; 48 h after incubation in LysoPC-free DMEM medium,10-15%
same,membrane composition on repeated feeding,B16.F10 cells; repeated feeding (up to six times) every 48 h,did not further change the membrane composition
